In the experiment the test system is NF-κB activation. Description: NF-κB activation reporter assay (pNFκB-Luc luciferase) under TNF-α stimulation. The settings on record: HepG2 or HeLa cells, TNF-α 40 ng/ml, 4 hours; for inhibition at 1 µg/mL / inhibition at 10 µg/mL: Homo sapiens, read-out: The rate of inhibitory activity against NF-κB activation (%). The experiment is classed as cell-based, human. The protocol: Using a transfection reagent (Effectene; QIAGEN), the human hepatoma cell strain HepG2 or the human hysterocarcinoma cell strain HeLa was transfected with the firefly luciferase gene (Luc) contained plasmid (pNF κB-Luc Reporter Plasmid; […]) which contained oligonucleotide having five tandem copies of NF-κB binding sequences ([…]) on a upstream region of Luc, according to the QUAGEN's protocol and it was incuvated for 6-24 hours. After addition of TNF-α (40 ng/ml) with or without the test compound, the cells were incuvated for 4 hours, and intracellular luciferase activity was measured with PicaGene LT (TOYO INK MFG Co., Ltd.) and chemical luminescence measurement device ([…]luor Plus; TECAN). The inhibition ratio was measured as a ratio to the value of the luciferase activity without the test compound.
(In general: Reporter assays use an easily measured gene product as a stand-in for the process of interest.)

Where [1] appears, read: Concentration of the agent: 1 μg/mL.
Setting [2] is: Concentration of the agent: 10 μg/mL.

As for “5-Bromo-2-hydroxy-N-(2-phenethyl)benzamide [Compound 2]”, the “The rate of inhibitory activity against NF-κB activation (%)” value (“The rate of inhibitory activity … (%)” for short) runs as follows: under setting [1], 18.6%; under setting [2], 83.2%.

Consider “5-Bromo-N-(3,5-dichloro)phenyl-2-hydroxybenzenesulfonamide [Compound 10]”, for which the “The rate of inhibitory activity … (%)” value was determined as 7.1% under setting [1] and 78.6% under setting [2].

Turning to `O=C(NCc1cc(C(F)(F)F)cc(C(F)(F)F)c1)c1cc(Br)ccc1O` [Compound 1, N-{[3,5-bis(trifluoromethyl)phenyl]methyl}-5-bromo-2-hydroxybenzamide], the inhibition at 1 µg/mL under setting [1] is -33.6%. The inhibition at 10 µg/mL under setting [2] was 54.4%.

As to `O=C(NC1Cc2ccc(C(=O)N3CCOCC3)cc2C1)c1cc(Br)ccc1O` (stereo not drawn) [Compound 3, 5-Bromo-2-hydroxy-N-[5-(morpholinocarbonyl)indan-2-yl]benzamide], the inhibition at 1 µg/mL under setting [1] turned out to be 54.2%. For the same compound, the inhibition at 10 µg/mL under setting [2] was 68.4%.

As to `O=C(CC(c1ccc(O)cc1)c1ccc(Cl)cc1)c1c(O)cccc1O` (stereo not drawn) [Compound 4, 3-(4-Chlorophenyl)-1-(2,6-dihydroxyphenyl)-3-(4-hydroxyphenyl)propan-1-one], under setting [1], the inhibition at 1 µg/mL was found to be 42.9%. Further, the inhibition at 10 µg/mL under setting [2] was 94.1%.

Consider `COc1ccc(CCC(=O)c2cc(Cl)ccc2O)cc1` [Compound 5, 1-(5-Chloro-2-hydroxyphenyl)-3-(4-methoxyphenyl)propan-1-one], for which the inhibition at 1 µg/mL under setting [1] came out at 33.3%. Besides, the inhibition at 10 µg/mL under setting [2] is 98%.

`COc1ccc(C(=O)C=Cc2ccccc2OC)c(O)c1` [Compound 6, 1-(2-Hydroxy-4-methoxyphenyl)-3-(2-methoxyphenyl)propen-1-one]: under setting [1], the inhibition at 1 µg/mL stood at 27.8%. Besides, under setting [2], the inhibition at 10 µg/mL is 61.9%.

Consider `Cc1ccc(O)c(C(=O)C=Cc2ccc3c(c2)OCCCO3)c1` [Compound 7, 3-(3,4-Dihydro-2H-benzo[b][1,4]dioxepin-7-yl)-1-(2-hydroxy-5-methylphenyl)propen-1-one], for which the inhibition at 1 µg/mL under setting [1] came out at 30.4%. In addition, under setting [2], the inhibition at 10 µg/mL worked out at 68.7%.

With `COCc1ccc(C(=O)C=Cc2ccc3c(c2)OCCCO3)c(O)c1` [Compound 8, 3-(3,4-Dihydro-2H benzo[b][1,4]dioxepin-7-yl)-1-[2-hydroxy-4-(methoxylmethyl)phenyl]propen-1-one], the inhibition at 1 µg/mL under setting [1] was determined as 35.3%. The inhibition at 10 µg/mL under setting [2] was 59.9%.

For `C=C(c1ccc(Cl)cc1)c1cc(Cl)ccc1O` [Compound 9, 4-Chloro-2-[(4-chlorophenyl)ethen-2-yl]phenol], the inhibition at 1 µg/mL under setting [1] was determined as 21.9%. Also, under setting [2], the inhibition at 10 µg/mL was determined as 99.2%.

As to `O=C(Nc1ccccc1O)c1cc(C(F)(F)F)cc(C(F)(F)F)c1` [Compound 11, 3,5-Bis(trifluoromethyl)-N-(2-hydroxyphenyl)benzamide], under setting [1], the inhibition at 1 µg/mL amounted to 28.4%. In addition, under setting [2], the inhibition at 10 µg/mL is 44.1%.

`O=C(Nc1cc(Cl)ccc1O)c1cc(Cl)cc(Cl)c1` [Compound 12, N-(5-Chloro-2-hydroxyphenyl)-3,5-dichlorobenzamide]: the inhibition at 1 µg/mL under setting [1] was 68.6%. The inhibition at 10 µg/mL under setting [2] was determined as 87.3%.

As for `O=S(=O)(Nc1cc(Cl)ccc1O)c1cc(Cl)cc(Cl)c1` [Compound 13, N-(5-Chloro-2-hydroxyphenyl)-3,5-dichlorobenesulfonamide], the “The rate of inhibitory activity … (%)” value reads like this: under setting [1], −7.1%; under setting [2], 63.8%.

Regarding `Oc1ccc(Br)cc1CNc1cc(Cl)cc(Cl)c1` [Compound 14, N-[(5-Bromo-2-hydroxyphenyl)methyl]-3,5-dichloroaniline], the inhibition at 1 µg/mL under setting [1] worked out at 21.7%. In addition, the inhibition at 10 µg/mL under setting [2] was found to be 98.9%.

For the compound `O=C(NN=Cc1ccc(O)cc1O)c1cc(Cl)ccc1O` [Compound 15, 5-Chloro-2-hydroxybenzoic acid (2,4-dihydroxybenzylidene)hydrazide], the inhibition at 1 µg/mL under setting [1] was 15.2%. Further, the inhibition at 10 µg/mL under setting [2] came to 70.4%.

Values taken from patent US8097759B2, “Inflammatory cytokine release inhibitor” (Institute of Medicinal Molecular Design, Inc., priority 2000, dated 2012).
